Read-outs that look alike come from different tables or passages of the source.
What was measured:
[1] = test system: A375—NRASQ^61K cells (cell line A375.11); assay: CTGlo (CellTiter-Glo 2.0) Cell Viability Assay; type: cell-based; details: for Emax: 96 hours, lowest % viability achieved
Protocol: Compounds of the present invention were tested for their effect on the viability of A375—NRASQ^61K cells by quantification of ATP using the CellTiter-Glo® 2.0 Cell Viability Assay (Catalog No. G9243, Promega, Madison, WI, USA). This assay produces a luminescent signal in the presence of ATP, which is indicative of metabolically active cells, making the luminescence readout proportional to the number of viable cells. A375—NRASQ^61K cells, also referred to here as cell line A375.11, (harboring BRAF homozygous V600E mutation and NRAS homozygous Q61K mutation) were purchased from ATCC (Catalog No. CRL-1619IG-2, Manassas, VA, USA).
Cells were also plated to a 384-well plate with no compound treatment, to which CellTiter-Glo® reagent was added and luminescence was read right after plating to act as a baseline signal at time of plating (To).
DMSO treated cells with no CellTiter-Glo® reagent added were used as the background or positive control (P). Viability was determined by subtracting out the average background signal (P) and normalized to the average untreated signal (N) set at 100%.

mutant BRAF V600E = mutant BRAF V600E (Homo sapiens, UniProt P15056, V600E); assay: BRAF V600E HiBiT Degradation Assay in A375.10 cells; details: for HiBIT-Degradation A375.10 BRAF 2 hours IP nM / DC50 / HiBIT-Degradation A375.10 BRAF 24 hours IP nM: A375.10 cells; for HiBIT-Degradation A375.10 BRAF 2 hours IP nM / HiBIT-Degradation A375.10 BRAF 24 hours IP nM: inflection point of the dose-response curve
Chain of mutant BRAF V600E (P15056 whole entry V600E): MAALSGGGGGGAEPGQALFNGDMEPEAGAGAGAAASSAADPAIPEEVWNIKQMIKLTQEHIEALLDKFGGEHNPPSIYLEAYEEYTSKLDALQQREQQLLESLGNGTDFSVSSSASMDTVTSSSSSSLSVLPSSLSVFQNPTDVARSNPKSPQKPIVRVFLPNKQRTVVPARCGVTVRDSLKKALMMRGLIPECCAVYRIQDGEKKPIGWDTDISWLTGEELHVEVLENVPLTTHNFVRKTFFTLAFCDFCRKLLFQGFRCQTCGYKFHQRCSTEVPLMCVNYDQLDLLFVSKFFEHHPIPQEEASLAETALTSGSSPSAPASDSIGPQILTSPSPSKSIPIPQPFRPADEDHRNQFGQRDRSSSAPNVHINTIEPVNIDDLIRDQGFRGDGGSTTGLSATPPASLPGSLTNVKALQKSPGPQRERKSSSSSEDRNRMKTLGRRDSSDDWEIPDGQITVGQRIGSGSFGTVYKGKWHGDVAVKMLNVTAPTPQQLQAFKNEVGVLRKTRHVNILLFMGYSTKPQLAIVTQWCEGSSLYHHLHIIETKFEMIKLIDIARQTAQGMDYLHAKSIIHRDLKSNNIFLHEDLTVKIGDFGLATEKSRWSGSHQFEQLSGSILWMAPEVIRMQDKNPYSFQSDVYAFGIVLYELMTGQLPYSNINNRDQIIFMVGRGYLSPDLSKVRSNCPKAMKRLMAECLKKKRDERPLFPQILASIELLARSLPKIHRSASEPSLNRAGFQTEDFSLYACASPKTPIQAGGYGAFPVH
Protocol: Compounds of this invention were tested for degradation of mutant BRAF V600E using the HiBiT assay, a luminescence-based assay for quantification of cellular protein levels using the Nano-Glo@HiBiT Lytic Detection System (Catalog No. N3050, Promega, Madison, WI USA). This assay utilizes the HiBiT tag on a protein of interest, which creates a luminescent signal in the presence of a complementing peptide and its substrate, the quantification of which 10 is proportional to the amount of HiBiT-tagged protein in the cell.
A375 cells were engineered to express HiBiT tagged BRAF V600E by CRISPR knock-in of the HiBiT tag to the endogenous BRAF V600E locus, followed by selection of a clonal population containing 15 the appropriate knock-in (referred to here as cell line A375.10). […] Cell culture flasks and 384-well microplates 20 were acquired from VWR (Radnor, PA, USA).
Plates were then spun briefly, and cells were incubated with compound at 37° C. for 2 hoursor 24 hours.
Following the appropriate treatment time, Nano-Glo® HiBiT Lytic Assay reagents were added to the cells per the manufacturer's instructions by adding 30ul of reagent per well, and 10 the luminescence signal was acquired by plate reader. Cells treated with DMSO only (no test compound treatment) were used as the negative control (N). Media only (no cells added) with Nano-Glo reagent addition was used as the background or positive control (P). The percent response of compound treated samples were calculated by subtracting out the background signal (P) and normalizing to the DMSO control (N) as follows. % Response=100 x (Treated Signal - Average (P))/(Average (N) - Average (P)).
Data were analyzed with a 4-parameter logistic fit to generate sigmoidal dose-response curves. […] The Emax, or maximum effect of each compound, represents the amount of residual protein remaining in the cell following compound treatment.
The experiment was conducted at least once for each compound. If the experiment was conducted multiple times, the data shown in the table is the average of the two or more experiments.

[2] = 96 h, IP, read-out: CTGlo A375.11 96 hours IP
[3] = half-maximal inhibition of cell growth, table title: A375.11 96 hours, read-out: CTGlo A375.11 96 hours GI50
[4] = read-out: HIBIT-Degradation A375.10 BRAF 2 hours DC50 nM, 2 hours
[5] = read-out: HiBIT-Degradation A375.10 BRAF 2 hours Emax
[6] = read-out: HiBIT-Degradation A375.10 BRAF 24 hours DC50 nM, 24 hours
[7] = read-out: HiBIT-Degradation A375.10 BRAF 24 hours Emax

SMILES | HiBIT-Degradation A375.10 BRAF 24 hours IP nM (mutant BRAF V600E; 24 hours) | DC50 (mutant BRAF V600E; [6]) [nM] | Emax (mutant BRAF V600E; [7]) [%] | also measured
CCN(C)S(=O)(=O)Nc1ccc(F)c(Oc2ccc3ncn([C@@H]4COC5(CCN(C(=O)CN6CCC(c7ccc(C8CCC(=O)NC8=O)cc7OS(=O)(=O)F)CC6)CC5)C4)c(=O)c3c2)c1C#N (some centres unmarked) [drawing 1168] | – | – | – | GI50 [1, 2]: 1000 to 10000 nM; Emax [1]: 60 to 95%; GI50 [1, 3]: > 10000 nM
CCN(C)S(=O)(=O)Nc1ccc(F)c(Oc2ccc3ncn([C@H]4COC5(CCN(C(=O)CN6CCC(c7ccc(C8CCC(=O)NC8=O)cc7OS(=O)(=O)F)CC6)CC5)C4)c(=O)c3c2)c1C#N (some centres unmarked) [drawing 1169] | – | – | – | GI50 [1, 2]: 1000 to 10000 nM; Emax [1]: < 60%; GI50 [1, 3]: > 10000 nM
CCN(C)S(=O)(=O)Nc1ccc(F)c(Oc2ccc3ncn([C@@H]4COC5(CCN(C(=O)CN6CCC(c7ccc(OC8CCC(=O)NC8=O)cc7OS(C)(=O)=O)CC6)CC5)C4)c(=O)c3c2)c1C#N (some centres unmarked) [drawing 1206] | – | – | – | HiBIT-Degradation A375.10 BRAF 2 hours IP nM (mutant BRAF V600E; 2 hours): ** (<10 μM and >1 μM is **); DC50 (mutant BRAF V600E; [4]): > 10000 nM; Emax (mutant BRAF V600E; [5]): 60 to 95%
CCN(C)S(=O)(=O)Nc1ccc(F)c(Oc2ccc3ncn([C@@H]4COC5(CCN(C(=O)CN6CCC(c7ccc(C8CCC(=O)NC8=O)cc7OS(C)(=O)=O)CC6)CC5)C4)c(=O)c3c2)c1C#N (some centres unmarked) [drawing 1207] | – | – | – | HiBIT-Degradation A375.10 BRAF 2 hours IP nM (mutant BRAF V600E; 2 hours): ** (<10 μM and >1 μM is **); DC50 (mutant BRAF V600E; [4]): > 10000 nM; Emax (mutant BRAF V600E; [5]): < 60%
CCN(C)S(=O)(=O)Nc1ccc(F)c(Oc2ccc3ncn([C@@H]4COC5(CCN(C(=O)CN6CCC(c7ccc(NC8CCC(=O)NC8=O)cc7OS(C)(=O)=O)CC6)CC5)C4)c(=O)c3c2)c1C#N (some centres unmarked) [drawing 1208] | – | – | – | HiBIT-Degradation A375.10 BRAF 2 hours IP nM (mutant BRAF V600E; 2 hours): ** (<10 μM and >1 μM is **); DC50 (mutant BRAF V600E; [4]): > 10000 nM; Emax (mutant BRAF V600E; [5]): 60 to 95%
CCN(C)S(=O)(=O)Nc1ccc(F)c(Oc2ccc3ncn([C@@H]4COC5(CCN(C(=O)CN6CCC(c7ccc(NC8CCC(=O)NC8=O)cc7S(=O)(=O)F)CC6)CC5)C4)c(=O)c3c2)c1C#N (some centres unmarked) [drawing 1209] | – | – | – | HiBIT-Degradation A375.10 BRAF 2 hours IP nM (mutant BRAF V600E; 2 hours): * (>=10 μM is *); DC50 (mutant BRAF V600E; [4]): > 10000 nM; Emax (mutant BRAF V600E; [5]): 60 to 95%
CCN(C)S(=O)(=O)Nc1ccc(F)c(Oc2ccc3ncn([C@@H]4COC5(CCN(C(=O)CN6CCC(c7ccc(C8CCC(=O)NC8=O)cc7OS(=O)(=O)F)CC6)CC5)C4)c(=O)c3c2)c1C#N (some centres unmarked) [drawing 1210] | *** (<= 1 μM is ***) | < 1000 | < 60 | –
CCN(C)S(=O)(=O)Nc1ccc(F)c(Oc2ccc3ncn([C@H]4COC5(CCN(C(=O)CN6CCC(c7ccc(C8CCC(=O)NC8=O)cc7OS(=O)(=O)F)CC6)CC5)C4)c(=O)c3c2)c1C#N (some centres unmarked) [drawing 1211] | *** (<= 1 μM is ***) | < 1000 | < 60 | –
CCN(C)S(=O)(=O)Nc1ccc(F)c(Oc2ccc3ncn([C@H]4COC5(CCN(C(=O)CN6CCN(c7ccc(C8CCC(=O)NC8=O)cc7OS(=O)(=O)F)CC6)CC5)C4)c(=O)c3c2)c1C#N (some centres unmarked) [drawing 1212] | *** (<= 1 μM is ***) | < 1000 | < 60 | –
CCN(C)S(=O)(=O)Nc1ccc(F)c(Oc2ccc3ncn([C@H]4COC5(CCN(C(=O)CN6CCN(c7ccc(N8CCC(=O)NC8=O)cc7OS(=O)(=O)F)CC6)CC5)C4)c(=O)c3c2)c1C#N [drawing 1213] | *** (<= 1 μM is ***) | 1000 to 10000 | < 60 | –
CCN(C)S(=O)(=O)Nc1ccc(F)c(Oc2ccc3ncn([C@H]4COC5(CCN(C(=O)CN6CCC(c7ccc(OC8CCC(=O)NC8=O)cc7OS(=O)(=O)F)CC6)CC5)C4)c(=O)c3c2)c1C#N (some centres unmarked) [drawing 1214] | *** (<= 1 μM is ***) | < 1000 | < 60 | –
CCN(C)S(=O)(=O)Nc1ccc(F)c(Oc2ccc3ncn([C@H]4COC5(CCN(C(=O)CN6CCC(c7ccc(NC8CCC(=O)NC8=O)cc7S(=O)(=O)F)CC6)CC5)C4)c(=O)c3c2)c1C#N (some centres unmarked) [drawing 1215] | *** (<= 1 μM is ***) | < 1000 | < 60 | –
CCN(C)S(=O)(=O)Nc1ccc(F)c(Oc2ccc3ncn([C@H]4COC5(CCN(C(=O)CN6CCC(c7ccc(C8CCC(=O)NC8=O)cc7OS(=O)(=O)F)CC6)CC5)C4)c(=O)c3c2)c1C#N (some centres unmarked) [drawing 1216] | *** (<= 1 μM is ***) | < 1000 | – | –
CCN(C)S(=O)(=O)Nc1ccc(F)c(Oc2ccc3ncn([C@H]4COC5(CCN(C(=O)CN6CCC(c7ccc(NC8CCC(=O)NC8=O)cc7OS(C)(=O)=O)CC6)CC5)C4)c(=O)c3c2)c1C#N (some centres unmarked) [drawing 1217] | *** (<= 1 μM is ***) | < 1000 | < 60 | –
CCN(C)S(=O)(=O)Nc1ccc(F)c(Oc2ccc3ncn([C@H]4COC5(CCN(C(=O)CN6CCC(c7ccc(N8CCC(=O)NC8=O)cc7OS(=O)(=O)F)CC6)CC5)C4)c(=O)c3c2)c1C#N [drawing 1218] | *** (<= 1 μM is ***) | > 10000 | 60 to 95 | –
CCN(C)S(=O)(=O)Nc1ccc(F)c(Oc2ccc3ncn([C@@H]4COC5(CCN(C(=O)CN6CCC(c7ccc(N8CCC(=O)NC8=O)cc7OS(C)(=O)=O)CC6)CC5)C4)c(=O)c3c2)c1C#N [drawing 1219] | *** (<= 1 μM is ***) | < 1000 | < 60 | –
CCN(C)S(=O)(=O)Nc1ccc(F)c(Oc2ccc3ncn([C@H]4COC5(CCN(C(=O)CN6CCC(c7ccc(N8CCC(=O)NC8=O)cc7OS(C)(=O)=O)CC6)CC5)C4)c(=O)c3c2)c1C#N [drawing 1220] | *** (<= 1 μM is ***) | < 1000 | < 60 | –
CCN(C)S(=O)(=O)Nc1ccc(F)c(Oc2ccc3ncn([C@@H]4COC5(CCN(C(=O)CN6CCC(c7ccc(OC8CCC(=O)NC8=O)cc7S(=O)(=O)F)CC6)CC5)C4)c(=O)c3c2)c1C#N (some centres unmarked) [drawing 1221] | *** (<= 1 μM is ***) | < 1000 | < 60 | –
CCN(C)S(=O)(=O)Nc1ccc(F)c(Oc2ccc3ncn([C@@H]4COC5(CCN(C(=O)CN6CCC(c7ccc(NC8CCC(=O)NC8=O)cc7S(=O)(=O)F)CC6)CC5)C4)c(=O)c3c2)c1C#N (some centres unmarked) [drawing 1222] | *** (<= 1 μM is ***) | 1000 to 10000 | < 60 | –
CCN(C)S(=O)(=O)Nc1ccc(F)c(Oc2ccc3ncn([C@@H]4COC5(CCN(C(=O)CN6CCC(c7ccc(C8CCC(=O)NC8=O)cc7OS(C)(=O)=O)CC6)CC5)C4)c(=O)c3c2)c1C#N (some centres unmarked) [drawing 1223] | *** (<= 1 μM is ***) | < 1000 | < 60 | –
CCN(C)S(=O)(=O)Nc1ccc(F)c(Oc2ccc3ncn([C@H]4COC5(CCN(C(=O)CN6CCC(c7ccc(OC8CCC(=O)NC8=O)cc7OS(C)(=O)=O)CC6)CC5)C4)c(=O)c3c2)c1C#N (some centres unmarked) [drawing 1224] | *** (<= 1 μM is ***) | 1000 to 10000 | < 60 | –
CCN(C)S(=O)(=O)Nc1ccc(F)c(Oc2ccc3ncn([C@H]4COC5(CCN(C(=O)CN6CCC(c7ccc(OC8CCC(=O)NC8=O)cc7S(=O)(=O)F)CC6)CC5)C4)c(=O)c3c2)c1C#N (some centres unmarked) [drawing 1225] | ** (<10 μM and >1 μM is **) | > 10000 | 60 to 95 | –
CCN(C)S(=O)(=O)Nc1ccc(F)c(Oc2ccc3ncn([C@@H]4COC5(CCN(C(=O)CN6CCC(c7ccc(NC8CCC(=O)NC8=O)cc7OS(C)(=O)=O)CC6)CC5)C4)c(=O)c3c2)c1C#N (some centres unmarked) [drawing 1226] | ** (<10 μM and >1 μM is **) | 1000 to 10000 | < 60 | –
CCN(C)S(=O)(=O)Nc1ccc(F)c(Oc2ccc3ncn([C@@H]4COC5(CCN(C(=O)CN6CCC(c7ccc(N8CCC(=O)NC8=O)cc7OS(=O)(=O)F)CC6)CC5)C4)c(=O)c3c2)c1C#N [drawing 1227] | ** (<10 μM and >1 μM is **) | 1000 to 10000 | < 60 | –
CCN(C)S(=O)(=O)Nc1ccc(F)c(Oc2ccc3ncn([C@@H]4COC5(CCN(C(=O)CN6CCC(c7ccc(OC8CCC(=O)NC8=O)cc7OS(=O)(=O)F)CC6)CC5)C4)c(=O)c3c2)c1C#N (some centres unmarked) [drawing 1228] | ** (<10 μM and >1 μM is **) | 1000 to 10000 | < 60 | –
CCN(C)S(=O)(=O)Nc1ccc(F)c(Oc2ccc3ncn([C@@H]4COC5(CCN(C(=O)CN6CCN(c7ccc(N8CCC(=O)NC8=O)cc7OS(=O)(=O)F)CC6)CC5)C4)c(=O)c3c2)c1C#N [drawing 1229] | ** (<10 μM and >1 μM is **) | 1000 to 10000 | < 60 | –
CCN(C)S(=O)(=O)Nc1ccc(F)c(Oc2ccc3ncn([C@@H]4COC5(CCN(C(=O)CN6CCC(c7ccc(OC8CCC(=O)NC8=O)cc7OS(C)(=O)=O)CC6)CC5)C4)c(=O)c3c2)c1C#N (some centres unmarked) [drawing 1230] | ** (<10 μM and >1 μM is **) | > 10000 | < 60 | –
